# Entries after “also recorded” stand apart in the source; their conditions may differ. Where two headings read alike, the source gives them in different places.
# Experiments:
# [1] = molecular target: T1, His-DrCK1δA (Danio rerio, UniProt Q7T2E3); test: in vitro kinase assay, α-casein phosphorylation with [γ-32P]-ATP, standard conditions; assay type: biochemical, zebrafish (Danio rerio); details: Michaelis-Menten, ATP 0.5-250 µM
# T1 construct: made in house; host or cells: E. coli Rosetta 2 (DE3)
# T1 sequence (Q7T2E3 1-403): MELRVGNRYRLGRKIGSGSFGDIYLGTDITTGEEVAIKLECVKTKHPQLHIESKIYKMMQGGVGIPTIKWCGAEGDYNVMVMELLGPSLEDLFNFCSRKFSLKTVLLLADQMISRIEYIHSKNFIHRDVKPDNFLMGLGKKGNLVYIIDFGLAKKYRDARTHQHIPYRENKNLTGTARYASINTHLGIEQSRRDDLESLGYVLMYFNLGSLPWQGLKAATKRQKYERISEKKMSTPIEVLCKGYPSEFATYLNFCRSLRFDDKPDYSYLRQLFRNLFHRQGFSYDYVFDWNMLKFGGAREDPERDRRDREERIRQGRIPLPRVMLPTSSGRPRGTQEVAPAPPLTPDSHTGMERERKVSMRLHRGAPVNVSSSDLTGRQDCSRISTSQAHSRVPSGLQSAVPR
# Experimental: (§1) Each in vitro kinase reaction was performed in a total volume of 15 µL containing 25 mM Tris-HCl (pH 7.0), 10 mM MgCl2, 100 µM EDTA, 2.8 µM of the substrate α-casein and 0.4 pmol [γ-^32P]-ATP at 30°C. […] Reactions were stopped by adding 3 µL of 5x SDS loading buffer and incubating at 95°C for 5 min. Proteins were separated by SDS-PAGE and stained with Coomassie Brilliant Blue R250 (Waldeck GmbH & Co. KG, Muenster, Germany). Autoradiography visualized the incorporation of radioactively labelled γ-phosphate into the proteins. A quantitative analysis of the radioactive signal was performed by excising the proteins from dried gels and measuring phosphate incorporation via Cherenkov counting (Beckmann Scintillation Counter). For the determination of the initial velocity region, a linear regression was performed. Thereby, the number of included data-points was decreased stepwise, and the point of time with the highest maximum coefficient of determination (R ^2) was chosen as the kinase-specific standard reaction time. For determination of the maximal velocity (Vmax) and Michaelis constant (Km) of ATP, various ATP concentrations in a range from 0.5 to 250 µM were tested. Raw data was used for the calculation of enzyme velocity (V) in [pmol/min]. Then, V was plotted over substrate (ATP) concentration and fitted to the Michaelis-Menten model via GraphPad Prism 8 (GraphPad Software, La Jolla, CA, United States). According to the Michaelis-Menten curve, Km, which is the concentration of the substrate, that is needed to obtain half Vmax, was calculated. For determination of IC50 values, the scintillation data measured in cpm was transformed to pmol of transferred phosphate. The data was then transformed logarithmically (X = log(X)), normalized to DMSO (100%) and zero (0%) before fitting to sigmoidal dose-response curves with variable slope with nonlinear regression using GraphPad Prism 7.
# (§2) In compliance with the established standard conditions the kinase assays were performed in the presence of 20 µM of the respective inhibitor (Figure 7).
# (§3) Next, in vitro kinase assays were performed in absence and presence of the respective SMI at different concentrations (ranging from 13 to 26667 nM). The kinase activity of the inhibitor-treated samples was normalized to the DMSO-control and plotted against the inhibitor concentration (Figure 10).
# [2] = molecular target: T2, His-DrCK1δB (Danio rerio, UniProt Q6P3K7); test: as above; assay type: biochemical, zebrafish (Danio rerio); details: Michaelis-Menten, ATP 0.5-250 µM
# T2 construct: made in house; host or cells: E. coli Rosetta 2 (DE3)
# T2 sequence (Q6P3K7 1-409): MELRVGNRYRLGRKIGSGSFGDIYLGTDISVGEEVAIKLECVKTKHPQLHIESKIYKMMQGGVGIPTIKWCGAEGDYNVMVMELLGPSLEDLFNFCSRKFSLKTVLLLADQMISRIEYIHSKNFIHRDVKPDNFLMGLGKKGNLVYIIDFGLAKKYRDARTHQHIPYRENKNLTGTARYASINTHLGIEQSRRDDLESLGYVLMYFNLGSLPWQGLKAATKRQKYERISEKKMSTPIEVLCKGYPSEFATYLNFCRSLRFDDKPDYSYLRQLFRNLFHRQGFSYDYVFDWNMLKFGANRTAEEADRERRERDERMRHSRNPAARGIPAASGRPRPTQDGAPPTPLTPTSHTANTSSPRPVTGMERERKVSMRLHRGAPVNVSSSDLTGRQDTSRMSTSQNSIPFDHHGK
# Experimental: as §1, §2, §3
# [3] = molecular target: T3, GST-CK1ε (Homo sapiens, UniProt P49674); test: as above; assay type: biochemical; details: Michaelis-Menten, ATP 0.5-250 µM
# T3 construct: made in house; host or cells: E. coli Rosetta 2 (DE3)
# T3 sequence (P49674 whole entry): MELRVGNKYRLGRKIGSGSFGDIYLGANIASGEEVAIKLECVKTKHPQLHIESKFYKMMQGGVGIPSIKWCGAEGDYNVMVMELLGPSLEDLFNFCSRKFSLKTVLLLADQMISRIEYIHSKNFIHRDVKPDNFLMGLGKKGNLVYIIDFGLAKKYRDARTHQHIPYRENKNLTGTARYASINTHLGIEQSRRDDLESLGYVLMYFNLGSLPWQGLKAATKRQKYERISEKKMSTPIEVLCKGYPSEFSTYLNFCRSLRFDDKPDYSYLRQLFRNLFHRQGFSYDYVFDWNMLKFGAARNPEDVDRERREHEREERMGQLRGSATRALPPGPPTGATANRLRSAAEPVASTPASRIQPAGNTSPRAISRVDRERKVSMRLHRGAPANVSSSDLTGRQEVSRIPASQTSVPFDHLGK
# Experimental: as §1, §2
# [4] = test system: His-DrCK1ε; test: as above; assay type: biochemical, zebrafish (Danio rerio); details: Michaelis-Menten, ATP 0.5-250 µM
# Experimental: as §1, §2
# [5] = molecular target: T4, GST-humCK1δ^TV1 (Homo sapiens, UniProt P48730); set-up: method as in Roth et al., 2021; details: previously established, ref Roth et al., 2021; read-out: Km(ATP); cited from earlier work
# T4 construct: made in house; host or cells: E. coli Rosetta 2 (DE3)
# T4 sequence (P48730 whole entry): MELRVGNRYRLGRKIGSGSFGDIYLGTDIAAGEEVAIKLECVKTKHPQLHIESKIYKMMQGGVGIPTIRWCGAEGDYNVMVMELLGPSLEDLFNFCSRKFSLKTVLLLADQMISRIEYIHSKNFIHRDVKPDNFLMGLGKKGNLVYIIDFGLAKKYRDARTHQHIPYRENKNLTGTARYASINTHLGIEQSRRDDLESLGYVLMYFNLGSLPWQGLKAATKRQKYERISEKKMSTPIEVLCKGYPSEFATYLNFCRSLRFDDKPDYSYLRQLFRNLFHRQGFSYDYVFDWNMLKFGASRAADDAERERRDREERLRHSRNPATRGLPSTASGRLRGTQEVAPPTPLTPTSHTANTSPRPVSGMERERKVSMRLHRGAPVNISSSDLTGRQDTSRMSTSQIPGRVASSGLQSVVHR
# [6] = test system: CK1δ; set-up: method as in Bischof et al., 2012; Bibian et al., 2013; details: ref Bischof et al., 2012; Bibian et al., 2013; cited from earlier work
# [7] = molecular target: M28FCK1δ (rat) (Rattus norvegicus, UniProt Q06486, M82F); test: initial IC50 determination in in vitro kinase assays, prior to standardization; assay type: biochemical
# Chain of M28FCK1δ (rat) (Q06486 whole entry M82F): as the sequence (P48730 whole entry) above, with M82F, I381V counted along it
# [8] = molecular target: CK1δ (rat) (Rattus norvegicus, UniProt Q06486); test: as above; assay type: biochemical; details: not published
# Chain of CK1δ (rat) (Q06486 whole entry): as the sequence (P48730 whole entry) above, with I381V counted along it
# Experimental: (§4) The SMIs used in this study (summarized in Supplementary Table S2) were selected based on their inhibitory capacity toward CK1δ in vitro, whereby a broad range of inhibitors with varying efficiency were included. The determination of IC50-values was conducted prior to the standardization workflow establishment. Zebrafish embryos treated with 20 µM of the respective compound were phenotypically analyzed.
# (§5) Supplementary Table 6: List of the inhibitors that were selected for the in vivo screening of zebrafish embryonic development. The compounds were selected based on their ability to inhibit CK1δ in in vitro kinase assays. The initial IC50-values were determined prior to the establishment of the standardized in vitro kinase assay protocol. The Supplementary Table summarizes, whether the zebrafish embryos presented an abnormal phenotype upon inhibitor treatment. The inhibitors were added to the zebrafish medium in a concentration of 20 µM.
# [9] = molecular target: CK1ε (Homo sapiens, UniProt P49674); test: as above; assay type: biochemical; details: not published, read-out: IC50 values wtCK1ε
# Chain of CK1ε (P49674 whole entry): as the sequence (P49674 whole entry) above
# Experimental: as §4, §5
# [10] = test system: zebrafish embryos
# Experimental: The TüAB wildtype strain was used for all experiments. […] Zebrafish embryos were dechorionated at 24 h post fertilization (hpf) and treated with the respective concentration of inhibitor, dissolved in DMSO (Sigma-Aldrich, Stadt, Land) and diluted in E3 medium (5 mM NaCl, 0.17 mM KCl, 0.33 mM CaCl2, 0.33 mM MgSO4, 0.6 µM Methylene Blue dissolved in water). DMSO served as solvent control. Embryos were treated from 24 hpf until 72 hpf, the compound solution was renewed daily. Pictures and movies were recorded at 48 and 72 hpf. […] Pictures were taken on an Olympus stereo microscope SZX16 and movies were recorded on an inverse Leica stereo microscope DM IL LED Fluo equipped with a FLEXACAM C1.
# Embryos were dechorionated at 24 hpf and treated with 20 µM of the respective inhibitor (Figure 6A).
# [11] = molecular target: CK1δ (TV1) (Homo sapiens, UniProt P48730); test: initial IC50 determination in in vitro kinase assays, prior to standardization; assay type: biochemical; details: not published
# Chain of CK1δ (TV1) (P48730 whole entry): as the sequence (P48730 whole entry) above
# Experimental: as §4, §5
# [12] = molecular target: T5, CK1δ (TV2) (Homo sapiens, UniProt P48730); test: as above; assay type: biochemical; details: not published
# T5 sequence (P48730 1-409 isoform P48730-2): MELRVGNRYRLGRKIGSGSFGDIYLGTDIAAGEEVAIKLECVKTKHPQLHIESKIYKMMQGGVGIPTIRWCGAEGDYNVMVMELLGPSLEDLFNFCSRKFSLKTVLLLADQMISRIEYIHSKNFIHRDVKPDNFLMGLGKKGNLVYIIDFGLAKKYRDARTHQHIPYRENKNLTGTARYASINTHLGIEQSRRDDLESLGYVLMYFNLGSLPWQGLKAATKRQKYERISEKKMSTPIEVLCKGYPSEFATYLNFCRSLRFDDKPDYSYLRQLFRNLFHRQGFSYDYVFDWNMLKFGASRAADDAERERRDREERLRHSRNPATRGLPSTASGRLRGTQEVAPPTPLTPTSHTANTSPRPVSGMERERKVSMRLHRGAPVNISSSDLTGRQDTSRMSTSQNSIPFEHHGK
# Experimental: as §4, §5
# [13] = test system: human PKCα; set-up: method as in Qiao et al., 2021; details: ref Qiao et al., 2021; cited from earlier work
# [14] = test system: zebrafish PKCα; set-up: method as in Qiao et al., 2021; details: ref Qiao et al., 2021; cited from earlier work
# [15] = test system: csnk1da (CK1δA); test: morpholino knockdown in zebrafish embryos, phenotype; assay type: in vivo, zebrafish (D. rerio); details: 400 µM injected, 72 hpf
# Text: The TüAB wildtype strain was used for all experiments. […] DMSO served as solvent control. […] Embryos were immobilized in 2.5% methylcellulose.
compound,measurement,setting,value
Nc1ncnc2c1ncn2[C@@H]1O[C@H](COP(=O)(O)OP(=O)(O)OP(=O)(O)O)[C@@H](O)[C@H]1O [ATP],Km,[1],12 µM
same,Km,[2],5.31 µM
same,Km,[3],15.4 µM
same,Km,[4],14.5 µM
same,Km,[5],6 µM
O=C(Nc1nc2ccc(C(F)(F)F)cc2[nH]1)c1csc(NC(=O)c2ccccc2OC(F)(F)F)n1 [Bischof-5],50% inhibitory concentration (IC50) values,[6],double-digit nanomolar range
"COc1cc(Cn2c(SCC(=O)Nc3nc4ccc(C(F)(F)F)cc4s3)nc3c(c2=O)SCC3)cc(OC)c1 [G1-4, 2-((3-(3,5-Dimethoxybenzyl)-4-oxo-3,4,6,7-tetrahydrothieno[3,2-d]pyrimidin-2-yl)thio)-N-(6-(trifluormethyl)benzo [d]thiazol-2-yl)acetamid]",IC50,"[7]; prior to standardization, not published, read-out: IC50 values M28FCK1δ (rat)",160 nM
same,IC50,[8],380 nM
same,IC50,[9],3200 nM
same,Phenotypic changes,"[10]; zebrafish, in vivo",None observed
same,Phenotypic changes (with severity) after treatment of zebrafish embryos with 20 µM inhibitor,"[10]; zebrafish, in vivo",No
"CC(C)n1c(SCC(=O)Nc2nc3ccc(C(F)(F)F)cc3s2)nc2c(c1=O)SCC2 [G1-5, 2-((3-Isopropyl-4-oxo-3,4,6,7-tetrahydrothieno[3,2-d]pyrimidin-2-yl)thio)-N-(6-(trifluormethyl)benzo [d]thiazol-2-yl)acetamid]",IC50,[7],120 nM
same,IC50,[11],380 nM
same,IC50,[12],510 nM
same,IC50,[8],160 nM
same,IC50,[9],780 nM
same,Phenotypic changes (with severity) after treatment of zebrafish embryos with 20 µM inhibitor,"[10]; 20 µM in medium, from 24 hpf",Yes (mild)
same,phenotype of treated zebrafish embryos,"[10]; 20 µM, 24 to 72 hpf (48 h)",weak effect on heart development and function with a mild bradycardia and reduced heart rate; also recorded: a curved tail
O=S(=O)(NCCNC/C=C/c1ccc(Br)cc1)c1cccc2cnccc12 [H89],IC50,[13],31200 nM
same,IC50,[14],49800 nM
Fc1cccc(-n2cnc3c(NCc4nc5c(F)c(F)ccc5[nH]4)nc(N4CCOCC4)nc32)c1 [SR-3029],50% inhibitory concentration (IC50) values,[6],double-digit nanomolar range
"csnk1da: morpholino-modified antisense oligonucleotide targeting the translational start site of csnk1da, 5′-TCGGTTTCCTACTCTCAATTCCATG-3′ (all phosphorodiamidate morpholino (PMO))",phenotype of morpholino injected embryos,[15],reduced heart function resulting in blood congestion; also recorded: cardiac malfunction

# — publication PMC10518421, “Zebrafish as model system for the biological characterization of CK1 inhibitors” (Frontiers in Pharmacology, 2023)
